Reference: the NIST ThermoML archive (doi:10.1016/j.jct.2010.12.028)

Columns and labels:
[1] = xn = mol fraction of the nth substance listed; settings: 101 kPa, Liquid; for speed of sound: Sing-around technique in a fixed-path interferometer; for mass density: Vibrating tube method
[2] = excess molar enthalpy (molar enthalpy of mixing); xn = mol fraction of the nth substance listed; settings: 308.15 K, 101 kPa, Liquid, two-drop calorimeter

Cc1ccccc1N [2-methylaniline] + c1ccncc1
[1]
Settings | mass density, 298.15 K [kg/m3] | mass density, 303.15 K [kg/m3] | mass density, 308.15 K [kg/m3] | speed of sound, 298.15 K [m/s] | speed of sound, 303.15 K [m/s] | speed of sound, 308.15 K [m/s]
x1 = 0.0652 | 980.854 | 975.904 | 970.897 | 1431.7 | 1411.5 | 1391.8
x1 = 0.1138 | 982.607 | 977.714 | 972.767 | 1442.1 | 1421.8 | 1402.4
x1 = 0.1277 | – | 978.889 | – | – | – | –
x1 = 0.1477 | 983.731 | – | 973.991 | 1449.2 | 1429 | 1409.8
x1 = 0.1853 | 984.895 | 980.111 | 975.253 | 1457 | 1436.9 | 1417.8
x1 = 0.2374 | 986.375 | 981.65 | 976.858 | 1467.7 | 1447.7 | 1428.6
x1 = 0.2686 | 987.172 | 982.485 | 977.748 | 1474 | 1454 | 1435
x1 = 0.3005 | 987.937 | 983.289 | 978.587 | 1480.3 | 1460.4 | 1441.4
x1 = 0.3526 | 989.058 | 984.461 | 979.835 | 1490.5 | 1470.6 | 1451.7
x1 = 0.4104 | 990.119 | 985.592 | 981.051 | 1501.4 | 1481.7 | 1462.7
x1 = 0.4837 | 991.237 | 986.789 | 982.322 | 1514.8 | 1495.3 | 1476.3
x1 = 0.5238 | 991.751 | 987.335 | 982.917 | 1522 | 1502.6 | 1483.6
x1 = 0.5641 | 992.187 | 987.803 | 983.434 | 1529.1 | 1509.6 | 1490.6
x1 = 0.6231 | 992.73 | 988.386 | 984.067 | 1539.3 | 1519.7 | 1500.7
x1 = 0.6974 | 993.253 | 988.955 | 984.698 | 1551.7 | 1531.8 | 1513.1
x1 = 0.7678 | 993.622 | 989.362 | 985.142 | 1563.4 | 1542.9 | 1524.3
x1 = 0.8236 | 993.838 | 989.613 | 985.416 | 1572.5 | 1551.6 | 1532.9
x1 = 0.8622 | 993.969 | 989.756 | 985.573 | 1578.9 | 1557.4 | 1538.6
x1 = 0.9621 | 994.245 | 990.097 | 985.933 | 1595.9 | 1572.2 | 1553.2

[2]
Settings | excess molar enthalpy [kcal/mol]
x1 = 0.0397 | -0.052
x1 = 0.0728 | -0.0894
x1 = 0.1263 | -0.137
x1 = 0.1742 | -0.171
x1 = 0.2163 | -0.192
x1 = 0.2681 | -0.213
x1 = 0.3192 | -0.23
x1 = 0.3707 | -0.24
x1 = 0.4212 | -0.245
x1 = 0.4826 | -0.247
x1 = 0.5261 | -0.245
x1 = 0.5815 | -0.241
x1 = 0.6327 | -0.23
x1 = 0.7026 | -0.213
x1 = 0.7735 | -0.187
x1 = 0.8177 | -0.165
x1 = 0.8802 | -0.123
x1 = 0.9723 | -0.0346

Cc1ccccn1 [2-methylpyridine] + Cc1ccccc1N
[1]
Settings | mass density, 298.15 K [kg/m3] | mass density, 303.15 K [kg/m3] | mass density, 308.15 K [kg/m3] | speed of sound, 298.15 K [m/s] | speed of sound, 303.15 K [m/s] | speed of sound, 308.15 K [m/s]
x2 = 0.0588 | 944.871 | 940.204 | 935.521 | 1395.6 | 1376.2 | 1355.7
x2 = 0.1226 | 950.051 | 945.414 | 940.771 | 1412 | 1392.5 | 1372.3
x2 = 0.1427 | 951.609 | 946.996 | 942.357 | 1417.3 | 1397.5 | 1377.4
x2 = 0.1759 | 954.117 | 949.518 | 944.908 | 1425.8 | 1405.8 | 1385.8
x2 = 0.2258 | 957.721 | 953.161 | 948.573 | 1438.3 | 1418.1 | 1398.3
x2 = 0.2557 | 959.793 | 955.24 | 950.677 | 1445.7 | 1425.4 | 1405.6
x2 = 0.3113 | 963.447 | 958.931 | 954.409 | 1459.5 | 1438.7 | 1418.7
x2 = 0.3629 | 966.623 | 962.158 | 957.666 | 1471.8 | 1450.8 | 1430.8
x2 = 0.4213 | 969.995 | 965.568 | 961.112 | 1485.4 | 1464 | 1443.9
x2 = 0.4743 | 972.843 | 968.45 | 964.025 | 1497.5 | 1475.7 | 1455.4
x2 = 0.5146 | 974.899 | 970.527 | 966.122 | 1506.3 | 1484.4 | 1464
x2 = 0.5732 | 977.707 | 973.382 | 968.998 | 1519.1 | 1496.8 | 1476.2
x2 = 0.6182 | 979.733 | 975.431 | 971.079 | 1528.4 | 1505.9 | 1485.5
x2 = 0.6862 | 982.621 | 978.364 | 974.033 | 1542.2 | 1519.4 | 1498.8
x2 = 0.7571 | 985.441 | 981.219 | 976.909 | 1556.3 | 1532.9 | 1508
x2 = 0.8344 | 988.355 | 984.158 | 979.889 | 1571.1 | 1547.4 | 1522.5
x2 = 0.8737 | 989.787 | 985.611 | 981.361 | 1578.5 | 1554.6 | 1538.1
x2 = 0.9527 | 992.636 | 988.492 | 984.295 | 1593.5 | 1569.1 | 1555.1

[2]
Settings | excess molar enthalpy [kcal/mol]
x2 = 0.0496 | -0.0681
x2 = 0.0772 | -0.103
x2 = 0.1356 | -0.173
x2 = 0.1802 | -0.22
x2 = 0.2234 | -0.26
x2 = 0.2736 | -0.298
x2 = 0.3294 | -0.327
x2 = 0.3813 | -0.347
x2 = 0.4326 | -0.361
x2 = 0.4882 | -0.358
x2 = 0.5321 | -0.351
x2 = 0.5735 | -0.342
x2 = 0.6423 | -0.307
x2 = 0.7152 | -0.259
x2 = 0.7821 | -0.207
x2 = 0.8293 | -0.163
x2 = 0.8916 | -0.104
x2 = 0.9676 | -0.0298
